Source: patent US20260256925A1, “INDAZOLE DERIVATIVES AS ESTROGEN RECEPTOR DEGRADERS” (REGENTS OF THE UNIVERSITY OF MICHIGAN, priority 2022, published 2026)

Assays:
ER = molecular target: T1, ER (Homo sapiens, UniProt P03372); assay: In-cell western blot analysis, relative ER percentage (compounds B1-B126); type: cell-based; settings: ER degradation, 16 hours, read-out: ICW DC50
T1 construct: endogenous in cells; probably T47D or MCF-7
T1 sequence (P03372 1-595): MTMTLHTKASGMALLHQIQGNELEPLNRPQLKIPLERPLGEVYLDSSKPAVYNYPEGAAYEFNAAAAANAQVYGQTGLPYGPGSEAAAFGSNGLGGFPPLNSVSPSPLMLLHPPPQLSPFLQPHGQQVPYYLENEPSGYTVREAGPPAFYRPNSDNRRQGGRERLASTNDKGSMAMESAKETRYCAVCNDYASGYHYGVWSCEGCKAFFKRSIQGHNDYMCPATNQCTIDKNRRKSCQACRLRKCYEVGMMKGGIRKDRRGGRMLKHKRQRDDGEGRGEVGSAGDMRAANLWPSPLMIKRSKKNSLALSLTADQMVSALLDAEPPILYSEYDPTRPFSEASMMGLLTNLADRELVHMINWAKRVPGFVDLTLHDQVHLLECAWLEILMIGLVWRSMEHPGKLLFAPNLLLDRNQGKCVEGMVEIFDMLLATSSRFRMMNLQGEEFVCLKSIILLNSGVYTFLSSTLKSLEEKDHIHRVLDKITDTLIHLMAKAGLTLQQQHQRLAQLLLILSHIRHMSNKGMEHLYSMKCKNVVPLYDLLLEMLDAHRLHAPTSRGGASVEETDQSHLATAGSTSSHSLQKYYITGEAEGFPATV
Outline: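 Cells seeded at 40,000 or 10,000 per well overnight were treated with compound (final 0.5% DMSO) for 16 hours, then fixed with formaldehyde. ER was detected with primary antibodies and anti-rabbit-680/anti-mouse-800 secondaries on a CLX reader. Signal is expressed relative to untreated and DMSO wells set as 100%.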

[1] = Cell growth assay, WST-8 (compounds B1-B126); type: cell-based; settings: 96 h; T47D cell line, WST-8, 4 days; read-out: Cell growth inhibition in T47D cell line IC50
Outline: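 Cells seeded at 1500/well overnight, treated one day later with compound doses for 4 days, then 10% WST-8 added for 2.5 h at 37° C in CO2. Absorbance at 450 nm, expressed relative to vehicle control over three independent repeats.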

SMILES	DC50 (ER) [nM]	IC50 [1] [nM]
COc1cc(N2CCC3(CCN(C(=O)CN4Cc5cc6c(cc5C4)C(=O)N(C4CCC(=O)NC4=O)C6=O)CC3)CC2)ccc1[C@@H]1c2ccc3[nH]ncc3c2C[C@@H](C)N1CC(F)F (stereo partly drawn) [Compound B68, 6-(2-(9-(4-((6S,8R)-7-(2,2-difluoroethyl)-8-methyl-6,7,8,9-tetrahydro-3H-pyrazolo[4,3-f]isoquinolin-6-yl)-3-methoxyphenyl)-3,9-diazaspiro[5.5]undecan-3-yl)-2-oxoethyl)-2-(2,6-dioxopiperidin-3-yl)-6,7-dihydropyrrolo[3,4-f]isoindole-1,3(2H,5H)-dione]	< 10	1 to 10
C[C@@H]1Cc2c(ccc3[nH]ncc23)[C@@H](c2ccc(N3CCC4(CCN(C(=O)CN5Cc6cc7c(cc6C5)C(=O)N(C5CCC(=O)NC5=O)C7=O)CC4)CC3)cn2)N1CC(F)F (stereo partly drawn) [Compound B49, 6-(2-(9-(6-((6S,8R)-7-(2,2-difluoroethyl)-8-methyl-6,7,8,9-tetrahydro-3H-pyrazolo[4,3-f]isoquinolin-6-yl)pyridin-3-yl)-3,9-diazaspiro[5.5]undecan-3-yl)-2-oxoethyl)-2-(2,6-dioxopiperidin-3-yl)-6,7-dihydropyrrolo[3,4-f]isoindole-1,3(2H,5H)-dione]	10 to 100	> 10
COc1cc(N2CCC(N3CC(N4CCN5c6cc7c(cc6OC[C@@H]5C4)C(=O)N(C4CCC(=O)NC4=O)C7)C3)CC2)ccc1[C@@H]1c2ccc3[nH]ncc3c2C[C@@H](C)N1CC(F)F (stereo partly drawn) [Compound B53, 3-((S)-3-(1-(1-(4-((6S,8R)-7-(2,2-difluoroethyl)-8-methyl-6,7,8,9-tetrahydro-3H-pyrazolo[4,3-f]isoquinolin-6-yl)-3-methoxyphenyl)piperidin-4-yl)azetidin-3-yl)-8-oxo-1,2,3,4,4a,5,8,10-octahydro-9H-pyrazino[1′,2′:4,5][1,4]oxazino[2,3-f]isoindol-9-yl)piperidine-2,6-dione]	10 to 100	< 1
C[C@@H]1Cc2c(ccc3[nH]ncc23)[C@@H](c2ccc(N3CC4(CCC(CN5CCN6c7ccc8c(c7OC[C@@H]6C5)CN(C5CCC(=O)NC5=O)C8=O)CC4)C3)cn2)N1CC(F)F (stereo partly drawn) [Compound B87, 3-((S)-7-((2-(6-((6S,8R)-7-(2,2-difluoroethyl)-8-methyl-6,7,8,9-tetrahydro-3H-pyrazolo[4,3-f]isoquinolin-6-yl)pyridin-3-yl)-2-azaspiro[3.5]nonan-7-yl)methyl)-1-oxo-1,3,5,5a,6,7,8,9-octahydro-2H-pyrazino[1′,2′:4,5][1,4]oxazino[2,3-e]isoindol-2-yl)piperidine-2,6-dione]	< 10	1 to 10
C[C@@H]1Cc2c(ccc3[nH]ncc23)[C@@H](c2ccc(N3CC4(CC(CN5CCN6c7ccc8c(c7OC[C@H]6C5)CN(C5CCC(=O)NC5=O)C8=O)CO4)C3)cn2)N1CC(F)(F)F (stereo partly drawn) [Compound B96, 3-((5aR)-7-((2-(6-((6S,8R)-8-methyl-7-(2,2,2-trifluoroethyl)-6,7,8,9-tetrahydro-3H-pyrazolo[4,3-f]isoquinolin-6-yl)pyridin-3-yl)-5-oxa-2-azaspiro[3.4]octan-7-yl)methyl)-1-oxo-1,3,5,5a,6,7,8,9-octahydro-2H-pyrazino[1′,2′:4,5][1,4]oxazino[2,3-e]isoindol-2-yl)piperidine-2,6-dione]	< 10	< 1
C[C@@H]1Cc2c(ccc3[nH]ncc23)[C@@H](c2ccc(N3CC4(CCC(CN5CCC6(CC5)COc5c6ccc6c5CN(C5CCC(=O)NC5=O)C6=O)CC4)C3)cn2)N1CC(F)(F)F (stereo partly drawn) [Compound B57, 3-(1′-((2-(6-((6S,8R)-8-mcthyl-7-(2,2,2-trifluoroethyl)-6,7,8,9-tetrahydro-3H-pyrazolo[4,3-f]isoquinolin-6-yl)pyridin-3-yl)-2-azaspiro[3.5]nonan-7-yl)methyl)-6-oxo-6,8-dihydro-2H,7H-spiro[furo[2,3-e]isoindole-3,4′-piperidin]-7-yl)piperidine-2,6-dione]	< 10	< 1
COc1cc(N2CCC3(CC2)OCC(CN2CCC4(CC2)COc2c4ccc4c2CN(C2CCC(=O)NC2=O)C4=O)CO3)ccc1[C@@H]1c2ccc3[nH]ncc3c2C[C@@H](C)N1CC(F)F (stereo partly drawn) [Compound B117, 3-(1′-((9-(4-((6S,8R)-7-(2,2-difluoroethyl)-8-methyl-6,7,8,9-tetrahydro-3H-pyrazolo[4,3-f]isoquinolin-6-yl)-3-methoxyphenyl)-1,5-dioxa-9-azaspiro[5.5]undecan-3-yl)methyl)-6-oxo-6,8-dihydro-2H,7H-spiro[furo[2,3-e]isoindole-3,4′-piperidin]-7-yl)piperidine-2,6-dione]	< 10	< 1
C[C@@H]1Cc2c(ccc3[nH]ncc23)[C@@H](c2c(F)cc(N3CCC4(CN(C(=O)CN5CCN6c7cc8c(cc7OC[C@@H]6C5)C(=O)N(C5CCC(=O)NC5=O)C8)C4)C3)cc2F)N1CC(F)F (stereo partly drawn) [Compound B37, 3-((S)-3-(2-(6-(4-((6S,8R)-7-(2,2-difluoroethyl)-8-methyl-6,7,8,9-tetrahydro-3H-pyrazolo[4,3-f]isoquinolin-6-yl)-3,5-difluorophenyl)-2,6-diazaspiro[3.4]octan-2-yl)-2-oxoethyl)-8-oxo-1,2,3,4,4a,5,8,10-octahydro-9H-pyrazino[1′,2′:4,5][1,4]oxazino[2,3-f]isoindol-9-yl)piperidine-2,6-dione]	< 10	< 1
COc1cc(N2CCC3(CC2)OCC(CN2CCN4c5cc6c(cc5OC[C@H]4C2)C(=O)N(C2CCC(=O)NC2=O)C6)CO3)ccc1[C@@H]1c2ccc3[nH]ncc3c2C[C@@H](C)N1CC(F)F (stereo partly drawn) [Compound B115, 3-((R)-3-((9-(4-((6S,8R)-7-(2,2-difluoroethyl)-8-methyl-6,7,8,9-tetrahydro-3H-pyrazolo[4,3-f]isoquinolin-6-yl)-3-mcthoxyphenyl)-1,5-dioxa-9-azaspiro[5.5]undecan-3-yl)methyl)-8-oxo-1,2,3,4,4a,5,8,10-octahydro-9H-pyrazino[1′,2′:4,5][1,4]oxazino[2,3-f]isoindol-9-yl)piperidine-2,6-dione]	< 10	< 1
C[C@@H]1Cc2c(ccc3[nH]ncc23)[C@@H](c2c(F)cc(N3CC4(CCN(C(=O)CN5CCN6c7cc8c(cc7OC[C@@H]6C5)C(=O)N(C5CCC(=O)NC5=O)C8)C4)C3)cc2F)N1CC(F)F (stereo partly drawn) [Compound B36, 3-((S)-3-(2-(2-(4-((6S,8R)-7-(2,2-difluoroethyl)-8-methyl-6,7,8,9-tetrahydro-3H-pyrazolo[4,3-f]isoquinolin-6-yl)-3,5-difluorophenyl)-2,6-diazaspiro[3.4]octan-6-yl)-2-oxoethyl)-8-oxo-1,2,3,4,4a,5,8,10-octahydro-9H-pyrazino[1′,2′:4,5][1,4]oxazino[2,3-f]isoindol-9-yl)piperidine-2,6-dione]	< 10	< 1
COc1cc(N2CCC3(CCN(C(=O)CN4Cc5cc6c(cc5C4)C(=O)N(C4CCC(=O)NC4=O)C6)CC3)CC2)ccc1[C@@H]1c2ccc3[nH]ncc3c2C[C@@H](C)N1CC(F)F (stereo partly drawn) [Compound B69, 3-(6-(2-(9-(4-((6S,8R)-7-(2,2-difluoroethyl)-8-methyl-6,7,8,9-tetrahydro-3H-pyrazolo[4,3-f]isoquinolin-6-yl)-3-methoxyphenyl)-3,9-diazaspiro[5.5]undecan-3-yl)-2-oxoethyl)-1-oxo-3,5,6,7-tetrahydropyrrolo[3,4-f]isoindol-2(1H)-yl)piperidine-2,6-dione]	< 10	< 1
